Assay results reported in paper PMC6155776, “Synthesis of Novel Pyrazinamide Derivatives Based on 3-Chloropyrazine-2-carboxamide and Their Antimicrobial Evaluation” (Molecules : A Journal of Synthetic Chemistry and Natural …, 2017).
≈ marks a conversion by molar mass, not a printed value. Like-named read-outs stand apart in the source and are kept apart here.

Columns and labels:
Experiment in all cases: microbe, parasite or virus in culture
Format in all cases: cell-based
[1] = test system: M. tbc PRAHA 4; settings: Mycobacterium tuberculosis, read-out: Minimum inhibitory concentrations M. tbc PRAHA 4
[2] = test system: M. tbc PRAHA 131; settings: Mycobacterium tuberculosis, read-out: Minimum inhibitory concentrations M. tbc PRAHA 131
[3] = test system: four MDR-TB strains and one XDR-TB strain; settings: Mycobacterium tuberculosis, read-out: MIC against resistant M. tuberculosis strains
[4] = test system: M. tbc 9449/2007; settings: Mycobacterium tuberculosis, read-out: Minimum inhibitory concentrations M. tbc 9449/2007
[5] = test system: M. tbc PRAHA 1; settings: Mycobacterium tuberculosis, read-out: Minimum inhibitory concentrations M. tbc PRAHA 1
[6] = test system: M. tbc 234/2005; settings: Mycobacterium tuberculosis, read-out: Minimum inhibitory concentrations M. tbc 234/2005

Row | SMILES | MIC ([1]; PRAHA4, 336 h) [µM] | MIC ([1]; PRAHA4, 504 h) [µM] | MIC ([2]; PRAHA131, 336 h) [µM] | MIC ([2]; PRAHA131, 504 h) [µM] | MIC [3] [µM] | MIC ([4]; 9449/2007, 336 h) [µM] | MIC ([4]; 9449/2007, 504 h) [µM] | MIC ([5]; PRAHA1, 336 h) [µM] | MIC ([5]; PRAHA1, 504 h) [µM] | MIC ([6]; 234/2005, 336 h) [µM] | MIC ([6]; 234/2005, 504 h) [µM]
1 | Cc1ccc(CNc2nccnc2C(N)=O)cc1 [Compound 8, 3-[(4-Methylbenzyl)amino]pyrazine-2-carboxamide] | 250 (≈ 60.6 µg/mL) | 250 (≈ 60.6 µg/mL) | 250 (≈ 60.6 µg/mL) | 250 (≈ 60.6 µg/mL) | 250 (≈ 60.6 µg/mL) | 250 (≈ 60.6 µg/mL) | 250 (≈ 60.6 µg/mL) | 250 (≈ 60.6 µg/mL) | 250 (≈ 60.6 µg/mL) | 250 (≈ 60.6 µg/mL) | 250 (≈ 60.6 µg/mL)
2 | NC(=O)c1nccnc1NCc1ccc(N)cc1 [Compound 9, 3-[(4-Aminobenzyl)amino]pyrazine-2-carboxamide] | 62.5 (≈ 15.2 µg/mL) | 62.5 (≈ 15.2 µg/mL) | 62.5 (≈ 15.2 µg/mL) | 125 (≈ 30.4 µg/mL) | 62.5 (≈ 15.2 µg/mL) | 62.5 (≈ 15.2 µg/mL) | 62.5 (≈ 15.2 µg/mL) | 62.5 (≈ 15.2 µg/mL) | 62.5 (≈ 15.2 µg/mL) | 62.5 (≈ 15.2 µg/mL) | 62.5 (≈ 15.2 µg/mL)
3 | NNC(=O)c1ccncc1 [INH, isoniazid, reference compound] | 15.6 (≈ 2.14 µg/mL) | 31.2 (≈ 4.29 µg/mL) | 15.6 (≈ 2.14 µg/mL) | 31.2 (≈ 4.29 µg/mL) |  | 62.5 (≈ 8.57 µg/mL) | 62.5 (≈ 8.57 µg/mL) | 15.6 (≈ 2.14 µg/mL) | 15.6 (≈ 2.14 µg/mL) | 15.6 (≈ 2.14 µg/mL) | 15.6 (≈ 2.14 µg/mL)
4 | CO[C@H]1/C=C/O[C@@]2(C)Oc3c(C)c(O)c4c(O)c(c(/C=N/N5CCN(C)CC5)c(O)c4c3C2=O)NC(=O)/C(C)=C\C=C\[C@H](C)[C@H](O)[C@@H](C)[C@@H](O)[C@@H](C)[C@H](OC(C)=O)[C@@H]1C [RFM, rifampicin, reference compound] | > 15.6 | > 15.6 | > 15.6 | > 15.6 |  | > 15.6 | > 15.6 | > 15.6 | > 15.6 | > 15.6 | > 15.6
